Measurements from patent US20230227428A1 (Anaxis Pharma Pty Ltd, priority 2020, published 2023).

Legend:
U937 cells = experiment: Counter screen: cell viability of U937 cells treated with compound without the TSQ cocktail (off-target effect); conditions: Homo sapiens, U-937, compound in DMSO without the TSQ cocktail, cell viability by CelltiterGlo, read-out: Off-target effect (IC50 cell-based assay)
Procedure: (§1) Cell Line ID: U937 human histiocytic leukemia cell line.
(§2) The cellular assay was carried out according to the following steps: • 1. Each well was prepared by sequential addition of: • a. DMSO (control; columns 1-2 and 23-24) or compound in DMSO—addition was performed using acoustic transfer of nl volumes of stock compound to give final test concentrations of 36, 12, 4, 1.3, 0.44, 0.148, 0.049, 0.016, 0.005 and 0.002 μM. All wells were backfilled with DMSO to a final total volume in the well of 100 nl. • b. Following compound/DMSO addition in step (a), 40 μL of cell suspension (5×10^5 cells/mL) was added to provide a final cell concentration of 20,000 cells per well, and • c. Following cell addition in step (b), 10 μL of 5×TSQ cocktail (except to positive controls; […]) was added to each well. • 2. After 48 hours, plate was removed from the 37° C. incubator and equilibrated to room temperature for 45 minutes. • 3. 15 μL of room temperature CellTitre-Glo2™ (Promega™) was added to each well. • 4. Shook plates for 2 minutes (˜600 rpm) and incubated at room temperature for 15 minutes to allow signal to stabilise. • 5. Read luminescence readout on a plate reader.
(§3) Curve fitting: 10-point titration curves are fitted with the 4-parameter logistic nonlinear regression model and the IC50 reported is the inflection point of the curve
Counter screen: In parallel, all compounds were tested for their ability to affect cell viability. The same U937 cells were treated with compound in DMSO without the TSQ cocktail. This counter screen enabled evaluation of off-target effects. In this case, cell viability was measured by CelltiterGlo.

RIP3 = molecular target: T1, RIP3 (Homo sapiens, UniProt Q9Y572); experiment: KINOMEscan binding affinity assay, RIP3; conditions: equilibrium dissociation constant
T1 construct: purchased DiscoverX (KINOMEscan service); host or cells: E. coli BL21-derived host (T7 phage) or HEK-293
T1 sequence (Q9Y572 whole entry): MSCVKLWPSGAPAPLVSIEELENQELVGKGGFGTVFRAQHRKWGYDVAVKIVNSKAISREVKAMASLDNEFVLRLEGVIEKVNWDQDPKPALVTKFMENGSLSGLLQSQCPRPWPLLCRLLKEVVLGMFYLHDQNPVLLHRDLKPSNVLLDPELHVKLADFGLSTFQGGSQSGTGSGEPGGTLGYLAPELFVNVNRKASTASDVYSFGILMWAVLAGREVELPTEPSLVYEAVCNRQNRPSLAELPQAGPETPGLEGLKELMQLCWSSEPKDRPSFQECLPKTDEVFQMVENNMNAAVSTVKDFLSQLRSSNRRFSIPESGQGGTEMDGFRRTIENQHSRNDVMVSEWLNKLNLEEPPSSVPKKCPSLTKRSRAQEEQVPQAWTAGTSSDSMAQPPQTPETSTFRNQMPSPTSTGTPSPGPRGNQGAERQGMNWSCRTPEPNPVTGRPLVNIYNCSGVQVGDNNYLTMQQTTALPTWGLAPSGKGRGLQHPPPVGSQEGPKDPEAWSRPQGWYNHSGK
Description: (§4) The Hill Slope was set to −1.

[1] = test system: U937 human histiocytic leukemia cell line; experiment: Cellular assay: inhibition of TSQ induced necroptosis, 384 well plate format; conditions: U-937, U937 cells, TSQ cocktail (TNF, Smac mimetic, Q-VD-OPh), 48 hours, CellTitre-Glo, read-out: Inhibition of TSQ-induced necroptosis (IC50 cell-based assay)
Procedure: Cellular Assay: Screening Compounds for Inhibition of TSQ Induced Necroptosis, 384 Well Plate Format.
as §1
Cell Concentration (cells/well): Final cell density is 20000 cells per well.
Cell growth medium: HT-RPMI medium+7.4% Fetal Bovine Serum (FBS). Cells are cultured in Corning 150 cm^2 tissue culture flasks with vented caps at 37° C./5% CO2.
Incubation: Plates were incubated at 37° C./5% CO2 in a humidified incubator for 48 hours following addition of compounds and death stimuli (TSQ cocktail).
Compound concentration: 36 μM starting concentration, 1:3 dilution, 10 point
DMSO final concentration (% v/v): 0.3%.
Compounds in TSQ cocktail (T: TNF; S: Smac mimetic; Q: Q-VD-OPh) and their final concentrations:
hTNF-Fc (100 ng/ml)—produced by standard procedures as shown in Bossen et al., J Biol Chem, 2006, 281(20), 13964-13971.
Compound A (500 nM)—Smac mimetic, Tetralogic and SYNthesis med chem Q-VD-OPh (10 μM)—MP Biomedicals
as §2
Percent viability was calculated for each compound according to equation (2):
% viability=100×((RawData−NSA)/(TA−NSA) (2)
wherein RawData is the readout of any cell containing a compound of the invention TA is the total activity provided by the luminescence readout from DMSO only wells (columns 2 and 24)=100% viability NSA is the non-specific activity provided by DMSO+TSQ wells (columns 1 and 23)=0% viability
as §3
Analysis: Data was loaded into Dotmatics™ and visualised using the Tibco® Spotfire™ software. points titration curve were fitted with the 4 parameter logistic nonlinear regression model and the IC50 reported reflect the inflection point of the curve for curve fitting.
Assay involving the TSQ cocktail (T: TNF; S: Smac mimetic; Q: Q-VD-OPh): TSQ treatment ensures that cells specifically undergo necroptotic cell death. TNF activates the TNF receptor, Smac mimetic directs the signal away from proinflammatory signaling and toward the RIP1/RIP3-mediated cell death pathways, and Q-VD-OPh ensures that the apoptotic response is blocked leaving only the programmed necrosis response. The compounds' activity (solution in DMSO) tested in this TSQ-induced assay was evaluated by determining the number of viable cells in culture by measuring the amount of ATP present as measured by CelltiterGlo.

MLKL (full length) = molecular target: T2, MLKL (full length) (Homo sapiens, UniProt Q8NB16); experiment: KINOMEscan binding affinity assay, MLKL; conditions: equilibrium dissociation constant
T2 construct: purchased DiscoverX (KINOMEscan service); host or cells: E. coli BL21-derived host (T7 phage) or HEK-293
T2 sequence (Q8NB16 1-471): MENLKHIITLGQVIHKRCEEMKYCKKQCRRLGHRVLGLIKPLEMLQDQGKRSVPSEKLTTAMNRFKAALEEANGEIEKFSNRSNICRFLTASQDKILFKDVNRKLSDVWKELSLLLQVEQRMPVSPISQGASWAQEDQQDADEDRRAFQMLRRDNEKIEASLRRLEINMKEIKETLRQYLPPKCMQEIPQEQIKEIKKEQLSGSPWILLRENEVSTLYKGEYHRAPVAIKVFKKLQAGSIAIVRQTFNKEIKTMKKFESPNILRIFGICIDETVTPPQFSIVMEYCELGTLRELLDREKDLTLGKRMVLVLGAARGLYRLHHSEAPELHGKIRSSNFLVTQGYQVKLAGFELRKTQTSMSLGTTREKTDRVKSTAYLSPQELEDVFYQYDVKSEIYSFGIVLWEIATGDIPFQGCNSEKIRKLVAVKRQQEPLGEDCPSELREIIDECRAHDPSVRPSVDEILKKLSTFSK
Description: as §4

RIP1 = molecular target: T3, RIP1 (Homo sapiens, UniProt Q13546); experiment: KINOMEscan binding affinity assay, RIP1; conditions: equilibrium dissociation constant
T3 construct: purchased DiscoverX (KINOMEscan service); host or cells: E. coli BL21-derived host (T7 phage) or HEK-293
T3 sequence (Q13546 1-671): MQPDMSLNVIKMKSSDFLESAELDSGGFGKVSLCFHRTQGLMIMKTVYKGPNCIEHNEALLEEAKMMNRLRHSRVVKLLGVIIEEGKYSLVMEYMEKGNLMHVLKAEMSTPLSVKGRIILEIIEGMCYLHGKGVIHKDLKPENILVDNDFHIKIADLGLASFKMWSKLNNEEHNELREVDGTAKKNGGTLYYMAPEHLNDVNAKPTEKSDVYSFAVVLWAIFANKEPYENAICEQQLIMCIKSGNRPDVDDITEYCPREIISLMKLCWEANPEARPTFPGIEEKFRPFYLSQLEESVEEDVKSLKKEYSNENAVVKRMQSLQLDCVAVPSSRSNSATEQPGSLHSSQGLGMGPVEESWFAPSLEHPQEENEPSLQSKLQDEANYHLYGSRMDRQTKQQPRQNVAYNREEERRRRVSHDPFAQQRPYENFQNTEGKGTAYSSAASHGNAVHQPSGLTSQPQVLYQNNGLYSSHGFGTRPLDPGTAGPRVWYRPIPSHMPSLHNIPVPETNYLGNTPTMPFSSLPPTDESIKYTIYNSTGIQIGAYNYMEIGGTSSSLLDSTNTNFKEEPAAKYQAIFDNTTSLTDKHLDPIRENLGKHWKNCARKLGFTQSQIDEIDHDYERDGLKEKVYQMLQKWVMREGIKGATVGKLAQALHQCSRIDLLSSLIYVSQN
Description: as §4

`NC(=O)c1c(-c2ccc(NC(=O)Cc3ccccc3)cc2)n[nH]c1Nc1ccccn1` [Compound 3, 3-(4-(2-phenyl-acetamido)phenyl)-5-(pyridin-2-ylamino)-1H-pyrazole-4-carboxamide] showed an IC50 (U937 cells) greater than 1000 nM, a Kd (RIP3) greater than 1000 nM and an IC50 [1] greater than 1000 nM. The Kd (MLKL (full length)) was less than 100 nM.

For `NC(=O)c1c(-c2ccc(NC(=O)Cc3ccsc3)cc2)n[nH]c1Nc1ccccn1` [Compound 13, 5-(pyridin-2-ylamino)-3-(4-(2-(thiophen-3-yl)acetamido)phenyl)-1H-pyrazole-4-carboxamide], the IC50 (U937 cells) was greater than 1000 nM, the Kd (RIP3) was greater than 1000 nM and the Kd (RIP1) was 100 to 1000 nM. It also gave an IC50 [1] of 100 to 1000 nM and a Kd (MLKL (full length)) of less than 100 nM.

For `NC(=O)c1c(-c2ccc(NC(=O)Cc3ccc(Cl)cc3)cc2)n[nH]c1Nc1cnccn1` [Compound 21, 3-(4-(2-(4-chlorophenyl)acetamido)phenyl)-5-(pyrazin-2-ylamino)-1H-pyrazole-4-carboxamide], the IC50 (U937 cells) was greater than 1000 nM, the Kd (RIP3) was greater than 1000 nM and the Kd (RIP1) was greater than 1000 nM. For the same molecule, the IC50 [1] was greater than 1000 nM and the Kd (MLKL (full length)) was less than 100 nM.

Molecule `NC(=O)c1c(-c2ccc(NC(=O)Cc3ccc(C(F)(F)F)cc3)cc2)n[nH]c1Nc1cnccn1` [Compound 22, 5-(pyrazin-2-ylamino)-3-(4-(2-(4-(trifluoromethyl)phenyl)acetamido)phenyl)-1H-pyrazole-4-carboxamide] has an IC50 (U937 cells) greater than 1000 nM, a Kd (RIP3) greater than 1000 nM and a Kd (RIP1) greater than 1000 nM. It also gave an IC50 [1] greater than 1000 nM and a Kd (MLKL (full length)) of less than 100 nM.

`NC(=O)c1c(-c2ccc(NC(=O)Cc3cccc(OC(F)(F)F)c3)cc2)n[nH]c1Nc1cnccn1` [Compound 23, 5-(pyrazin-2-ylamino)-3-(4-(2-(3-(trifluoromethoxy)phenyl)acetamido)phenyl)-1H-pyrazole-4-carboxamide] was tested, and the IC50 (U937 cells) was greater than 1000 nM, the Kd (RIP3) was greater than 1000 nM and the Kd (RIP1) was 100 to 1000 nM. It also gave an IC50 [1] of less than 100 nM and a Kd (MLKL (full length)) of less than 100 nM.

`NC(=O)c1c(-c2ccc(NC(=O)Cc3cccc(C(F)(F)F)c3)cc2)n[nH]c1Nc1cnccn1` [Compound 24, 5-(pyrazin-2-ylamino)-3-(4-(2-(3-(trifluoromethyl)phenyl)acetamido)phenyl)-1H-pyrazole-4-carboxamide] gave an IC50 (U937 cells) greater than 1000 nM, a Kd (RIP3) greater than 1000 nM and a Kd (RIP1) of 100 to 1000 nM. For the same molecule, the IC50 [1] was 100 to 1000 nM and the Kd (MLKL (full length)) was less than 100 nM.

`COc1cccc(CC(=O)Nc2ccc(-c3n[nH]c(Nc4cnccn4)c3C(N)=O)cc2)c1` [Compound 25, 3-(4-(2-(3-methoxyphenyl)acetamido)phenyl)-5-(pyrazin-2-ylamino)-1H-pyrazole-4-carboxamide] showed an IC50 (U937 cells) greater than 1000 nM, a Kd (RIP3) greater than 1000 nM and a Kd (RIP1) greater than 1000 nM. It also gave an IC50 [1] greater than 1000 nM and a Kd (MLKL (full length)) of 100 to 1000 nM.

`NC(=O)c1c(-c2ccc(NC(=O)Cc3ccccc3C(F)(F)F)cc2)n[nH]c1Nc1cnccn1` [Compound 27, 5-(pyrazin-2-ylamino)-3-(4-(2-(2-(trifluoromethyl)phenyl)acetamido)phenyl)-1H-pyrazole-4-carboxamide] was tested, and the IC50 (U937 cells) was greater than 1000 nM, the Kd (RIP3) was greater than 1000 nM and the Kd (RIP1) was greater than 1000 nM. It also gave an IC50 [1] greater than 1000 nM and a Kd (MLKL (full length)) of less than 100 nM.

In the case of `NC(=O)c1c(-c2ccc(NC(=O)Cc3ccc(OC(F)(F)F)cc3)cc2)n[nH]c1Nc1cnccn1` [Compound 30, 5-(pyrazin-2-ylamino)-3-(4-(2-(4-(trifluoromethoxy)phenyl)acetamido)phenyl)-1H-pyrazole-4-carboxamide], the IC50 (U937 cells) is reported as greater than 1000 nM, the Kd (RIP3) is reported as greater than 1000 nM and the Kd (RIP1) is reported as greater than 1000 nM. It also gave an IC50 [1] of 100 to 1000 nM and a Kd (MLKL (full length)) of less than 100 nM.

`NC(=O)c1c(-c2ccc(NC(=O)Cc3ccccc3Cl)cc2)n[nH]c1Nc1cnccn1` [Compound 32, 3-(4-(2-(2-chlorophenyl)acetamido)phenyl)-5-(pyrazin-2-ylamino)-1H-pyrazole-4-carboxamide] gave an IC50 (U937 cells) greater than 1000 nM, a Kd (RIP3) greater than 1000 nM and an IC50 [1] of 100 to 1000 nM. It also gave a Kd (MLKL (full length)) of less than 100 nM.

For `COCCOc1ccc(Nc2[nH]nc(-c3ccc(NC(=O)Cc4ccccc4)cc3)c2C(N)=O)nc1` [Compound 44, 5-((5-(2-methoxyethoxy)pyridin-2-yl)amino)-3-(4-(2-phenyl-acetamido)phenyl)-1H-pyrazole-4-carboxamide], the IC50 (U937 cells) was greater than 1000 nM, the Kd (RIP3) was 100 to 1000 nM and the Kd (RIP1) was 100 to 1000 nM. For the same molecule, the IC50 [1] was 100 to 1000 nM and the Kd (MLKL (full length)) was less than 100 nM.

In the case of `COc1cc(Nc2[nH]nc(-c3ccc(NC(=O)N4CCCC4c4ccccc4)cc3)c2C(N)=O)ccn1` (centres unmarked) [Compound 58, 5-((2-methoxypyridin-4-yl)amino)-3-(4-(2-phenylpyrrolidine-1-carboxamido)phenyl)-1H-pyrazole-4-carboxamide], the IC50 (U937 cells) is reported as greater than 1000 nM, the Kd (RIP3) is reported as greater than 1000 nM and the Kd (RIP1) is reported as greater than 1000 nM. It also gave an IC50 [1] greater than 1000 nM and a Kd (MLKL (full length)) of 100 to 1000 nM.

`NC(=O)c1c(-c2ccc(NC(=O)N3CCC[C@H](c4cccc(F)c4)C3)cc2)n[nH]c1Nc1cccc(C(F)(F)F)n1` [Compound 80, (R)-N-(4-(4-carbamoyl-5-((6-(trifluoromethyl)pyridin-2-yl)amino)-1H-pyrazol-3-yl)phenyl)-3-(3-fluorophenyl)piperidine-1-carboxamide] was tested, and the IC50 (U937 cells) was greater than 1000 nM, the Kd (RIP3) was greater than 1000 nM and the IC50 [1] was less than 100 nM. For the same molecule, the Kd (MLKL (full length)) was less than 100 nM.
